What was measured:
Assay type in all cases: in vivo
[1] = test system: Diamond Back Moth (Plutella xylostella); experiment: Insecticidal effect on diamond back moth (Test Example 1); conditions: 500 ppm; Chinese cabbage seedling with eggs immersed about 30 seconds; six days after the immersion; 25° C.
Description: Insecticidal Effect on Diamond Back Moth (Plutella xylostella)
Adult diamond back moths were released and allowed to oviposit on a Chinese cabbage seedling. Two days after the release, the seedling having the eggs deposited thereon was immersed for about 30 seconds in a liquid chemical prepared by diluting a preparation containing each compound listed in Tables 1 to 4 as an active ingredient to adjust the concentration to 500 ppm. After air-dryness, it was allowed to stand in a room thermostatted at 25° C. Six days after the immersion, the hatched insects were counted. The mortality was calculated according to the following equation and the insecticidal effect was judged according to the criterion shown below. The test was carried out with triplicate groups of 10 insects.

[2] = test system: Smaller Tea Tortrix (Adxophyes sp.); experiment: Insecticidal effect on smaller tea tortrix (Test Example 2); conditions: 500 ppm; tea leaves immersed about 30 seconds, inoculated with larvae; eight days after the inoculation; 25° C., humidity 70%
Description: Insecticidal Effect on Smaller Tea Tortrix (Adxophyes sp.)
Tea leaves were immersed for about 30 seconds in a liquid chemical prepared by diluting a preparation containing each compound listed in Tables 1 to 4 as an active ingredient to adjust the concentration to 500 ppm. After air-dryness, the tea leaves were placed in a plastic Petri dish with a diameter of 9 cm and inoculated with larvae of smaller tea tortrix, after which the dish was allowed to stand in a room thermostatted at 25° C. and having a humidity of 70%. Eight days after the inoculation, the dead and alive were counted. The mortality was calculated according to the following equation and the insecticidal effect was judged according to the criterion shown in Test Example 1. The test was carried out with triplicate groups of 10 insects.

[3] = test system: Two-Spotted Spider Mite (Tetranychus Urticae); experiment: Acaricidal effect on two-spotted spider mite (Test Example 3); conditions: 500 ppm; kidney bean leaf disc with female adults sprayed; two days after the treatment; 25° C.
Description: Acaricidal Effect on Two-Spotted Spider Mite (Tetranychus Urticae)
A leaf disc with a diameter of 2 cm was made of a kidney bean leaf, placed on wet filter paper, inoculated with female adult two-spotted spider mites, and then uniformly sprayed, on a turntable, with 50 ml of a liquid chemical prepared by diluting a preparation containing each compound listed in Tables 1 to 4 as an active ingredient to adjust the concentration to 500 ppm. After the spraying, the leaf disc was allowed to stand in a room thermostated at 25° C. Two days after the treatment with the preparation, the dead insects were counted and the acaricidal effect was judged according to the criterion shown in Test Example 1. The test was carried out with two replications of 10 insects.

[4] = test system: Green Peach Aphid (Myzus Persicae); experiment: Insecticidal effect on green peach aphid (Test Example 4); conditions: 500 ppm; stems and leaves of Chinese cabbage sprayed; six days after the spraying; greenhouse
Description: Insecticidal Effect on Green Peach Aphid (Myzus Persicae)
A Chinese cabbage plant was planted in each of plastic pots with a diameter of 8 cm and a height of 8 cm, and green peach aphids were propagated on the plant. Then, the stems and leaves were sufficiently sprayed with a liquid chemical prepared by diluting a preparation containing each compound listed in Tables 1 to 4 as an active ingredient to adjust the concentration to 500 ppm. After air-drying, the pots were allowed to stand in a greenhouse. Six days after the spraying, green peach aphids parasitic on each Chinese cabbage plant were counted and the control efficacy was calculated, whereby the […] effect was judged according to the criterion shown below. Control efficacy (%)=100−[(T×Ca)/(Ta×C)]×100 • Ta: number of parasites before spraying in treated group, • T: number of parasites after spraying in treated group,
Ca: number of parasites before spraying in untreated group, • […]: number of parasites after spraying in untreated group. Criterion for Judgment: • A: control efficacy 100% • B: control efficacy 99 to 90% • C: control efficacy 89 to 80% • D: control efficacy 79 to 50%

[5] = test system: powdery mildew fungus (Erysiphe graminis hordei); experiment: Controlling effect on barley powdery mildew (Test Example 5); conditions: 200 ppm; potted barley at 1 leaf stage sprayed one day after inoculation; one week after the inoculation; 25° C.
Description: Controlling Effect on Barley Powdery Mildew Potted barley plants at the 1 leaf stage were inoculated with spores of powdery mildew fungus (Erysiphe graminis hordei) by sprinkling. After one day, they were sprayed with a liquid chemical prepared by diluting a preparation containing each compound listed in Table 1, Table 3 or Table 4 as an active ingredient to adjust the concentration to 200 ppm. Then, they were allowed to stand in a room thermostated at 25° C. One week after the inoculation, the lesion area of each leaf was measured and then compared with that on the untreated plot, whereby the controlling effect was judged according to the following criterion. Criterion for Judgment: • A: control efficacy 100 to 95% • B: control efficacy 94 to 80% • C: control efficacy 79 to 60% • D: control efficacy 59 to 0%

CC(C)CC(C)c1cc(C(C(F)(F)F)C(F)(F)F)ccc1NC(=O)c1cnn(CCF)c1Cl (stereo not drawn) [1-52]
B or higher: insecticidal effect (mortality rating) [1] | insecticidal effect (mortality rating) [2] | acaricidal effect (mortality rating) [3] | control efficacy rating [4] | controlling effect (control efficacy rating, lesion area) [5]

CC(C)CC(C)c1cc(C(C(F)(F)F)C(F)(F)F)ccc1NC(=O)c1sccc1I (stereo not drawn) [3-30]
B or higher: insecticidal effect (mortality rating) [2] | controlling effect (control efficacy rating, lesion area) [5]

COC(c1ccc(NC(=O)c2sccc2I)c(C(C)CC(C)C)c1)(C(F)(F)F)C(F)(F)F (stereo not drawn) [3-31]
B or higher: insecticidal effect (mortality rating) [2] | controlling effect (control efficacy rating, lesion area) [5]

CC(C)CC(C)c1cc(C(C(F)(F)F)C(F)(F)F)ccc1NC(=O)c1c(C(F)(F)F)nn(C)c1Cl (stereo not drawn) [Compound No. 1-103, N-{2-(1,3-dimethylbutyl)-4-[2,2,2-trifluoro-1-(trifluoromethyl)ethyl]phenyl}-5-chloro-1-methyl-3-trifluoromethylpyrazole-4-carboxamide]
B or higher: insecticidal effect (mortality rating) [1] | insecticidal effect (mortality rating) [2] | acaricidal effect (mortality rating) [3]
